# “And” between values parts separate entries of the source, which are not always exact repeats. Identical values can stand only once.
# Experiments:
# CRP [1] = target: T1, CRP (Homo sapiens, UniProt P02741); test: Roche immunoturbidimetric assay: pure CRP; format: binding; parameters: The final concentrations were 0.73 μM native pentameric CRP; from tissue; details: pure CRP in TC buffer; read-out: IC50 (μM), SD; inhibition of Roche CRP immunoreactivity
# T1 sequence (P02741 19-224): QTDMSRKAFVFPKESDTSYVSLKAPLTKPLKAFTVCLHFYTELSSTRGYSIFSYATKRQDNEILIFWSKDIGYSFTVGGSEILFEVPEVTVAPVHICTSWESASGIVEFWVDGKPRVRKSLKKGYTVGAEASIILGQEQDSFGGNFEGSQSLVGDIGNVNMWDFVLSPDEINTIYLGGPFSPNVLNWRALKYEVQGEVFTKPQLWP
# Method: (i) Human CRP at ˜90 μg/ml (3.9 μM monomer or 0.78 μM pentamer) in TC buffer was prepared from a stock solution; a 75 μl aliquot was used in the assay.
# (ii) Compounds were prepared from stock solutions at up to 10 mM in TC (labelled S1). They were serially diluted with TC buffer (100 μl ligand+200 μl TC) to provide up to 9 dilutions, S2-S10. A TC buffer control (S0) was included in each assay.
# (iii) A 15 μl volume of each ligand solution was incubated with 75 μl of CRP for 1 h at 37° C. The final concentrations were CRP pentamer=0.73 μM, ligands S1-S10=625-0.03 μM, corresponding to ligand:CRP pentamer ratios of 853-0.04.
# (iv) CRP concentrations were measured by the Roche microparticle-enhanced immunoturbidimetric assay (10) on the COBAS MIRA autoanalyser, and results expressed as a percentage of the CRP control.
# (v) Data were plotted using Sigmaplot (V14) using the 4 parameter logistic curve y=min+(max−min)/(1+(x/EC50)^−Hill slope) to calculate EC50.
# (vii) All compounds were assayed in comparison with a highly purified preparation of BPC8, that was prepared by Carbogen AMCIS AG, dissolved in sterile water and diluted into TC buffer as required.
# The immunoturbidimetric CRP assay on the Roche COBAS MIRA Plus autoanalyser, utilises two different sized microparticles that are covalently coupled with two different monoclonal antibodies, which recognise different CRP epitopes. The assay was developed by Roche for clinical measurement of CRP serum and plasma with high sensitivity and a very wide dynamic range. Serendipitously, one of the two antibodies binds to an epitope present on the ligand binding B-face of CRP. Thus, when the binding pocket is occupied by ligand and, especially, when the B-face is occluded by the B-face to B-face interaction of two native CRP pentamers produced by cross linking via our unique bivalent ligands, the assay fails to detect the CRP. In contrast, the CRP is all detected and assayed normally by other assays that disrupt the crosslinking and/or use antibodies which recognise different, non-occluded, epitopes. Inhibition of CRP recognition in the Roche assay is thus a convenient tool to monitor the efficacy and potency of complex formation between our unique ligands and CRP.
# CRP [2] = target: T1, CRP; test: In vivo clearance of preformed CRP/ligand complexes in mice; parameters: from tissue
# Method: (i) CRP at 1 mg/ml in azide-free TC buffer (containing, in some experiments, ˜10^6 cpm/ml of ^125I-CRP) was incubated with a 5-fold molar excess of ligand. A control (ligand-free) sample was also prepared. Cross linking of CRP was confirmed by SEC in TC buffer of a small sample of complex.
# (ii) Two groups of eight wild-type C57BL/6 mice (male; 23-27 weeks old) were used.
# The complex or control (200 μl, 200 μg CRP) was injected into the tail vein of each mouse. A single timed collection of blood was taken from the tail vain of each mouse; a second terminal sample was also collected. This yielded 4 samples each at 30, 60, 120 and 180 min for control and treated groups.
# (iii) Blood samples were weighed and CRP measured in the Roche assay and, in some cases by electroimmunoassay (4, 13). ^125I-CRP was measured by gamma counting (Perkin Elmer Wizard; protocol #1).
# Complexes were prepared in vitro using ^125I-labelled CRP and an excess of ligand, and the mixture was then injected intravenously into mice. Clearance of CRP was monitored by counting of the ^125I-CRP tracer and stable CRP-ligand complexes were detected by lack of CRP detection in the Roche assay of the plasma samples. The formation of CRP/ligand complexes was confirmed by size exclusion chromatography before use in each in vivo experiment.
# CRP [3] = target: T1, CRP; test: Size exclusion chromatography of CRP/ligand cross linking; format: binding; parameters: The final concentrations were 0.73 μM native pentameric CRP; from tissue; details: CRP/ligand complex re-chromatographed in absence of free ligand
# Method: (i) Ligands were diluted to 0.5 mM in TC buffer from up to 10 mM stocks. Serial dilutions were prepared as required. […]
# (iii) The complex was chromatographed on a Superdex200 column (10/300 GL; 24 ml bed volume), connected to the ÅKTA100 Explorer HPLC system, and equilibrated and eluted in TC buffer at 0.5 ml/min. Eluates were monitored at 280 nm and fractions (0.5 ml) collected as required.
# Size exclusion chromatography on a Superdex 200 column equilibrated and eluted with TC buffer pH 8.0, and calibrated with standard globular marker proteins and with human CRP, the native CRP pentamer (Mr 115 kDa) eluted at 13.9 ml (range 13.7-14.0 ml, n=10).
# CRP [4] = target: T1, CRP; test: In vivo clearance of CRP/ligand complexes generated in vivo in mice; parameters: The final concentrations were 0.73 μM native pentameric CRP; from tissue
# Method: (i) Two groups of 8 wild-type C57BL/6 mice (male; 23-27 weeks old) were used: group 1 (control) and group 2 (treated).
# (§1) (ii) Both groups of animals were given 200 μl of human CRP (5 mg/ml in azide-free TC buffer) subcutaneously on day 1.
# (iii) On day 2 (+18 h), control animals were given a 200 μl intravenous bolus of TC buffer. Treated animals were given a 200 μl iv bolus of ligand (prepared at 5 mg/ml in TC buffer).
# (iv) One timed blood sample and a terminal blood sample were collected from each mouse into heparinised tubes and weighed. This generated data in quadruplicate at 4 time points, normally 30, 60, 120 and 360 minutes.
# (v) ^125I radiolabel was measured (Perkin Elmer Wizard; protocol #1) in whole blood to quantify total CRP. In some cases, electroimmunoassay as above was also used to determine total CRP concentration.
# (vi) Plasma was prepared and free CRP determined by Roche immunoassay.
# (§2) Subcutaneous injection of human CRP provided circulating CRP concentrations with which to test for effects of our ligands in vivo. (Table 4).
# CRP [5] = target: T1, CRP; test: MIRA immunoturbidimetric assay; format: binding; parameters: The final concentrations were 0.73 μM native pentameric CRP; from tissue
# Text: The CRP immunoturbidimetric assay on the Roche COBAS MIRA Plus autoanalyser, utilises two different sized latex particles that are covalently coupled with two different monoclonal antibodies with specificity for different CRP epitopes (10). The assay was validated by Roche for measurement of native pentameric CRP, for which it has high sensitivity and specificity and a high upper detection limit; it was calibrated against a standard produced in our laboratory. Serendipitously, one of the assay's antibodies binds to an epitope present on the ligand binding B face of CRP. […]
# CRP concentrations were measured in the presence and absence of ligands by the COBAS MIRA autoanalyser. […] CRP concentration was determined spectrophotometrically (Beckman Coulter DU 650) in quartz cuvettes with a 1 cm light path, by measuring A280 after correction for absorbance at 320 nm (light scattering) and using the measured absorption coefficient A(1%, 1 cm)=17.5 for human CRP (7). […]
# Data are expressed as measured CRP (mg/L) against final total ligand concentration (M) and were plotted using Sigmaplot (V14) using the 4 parameter logistic curve y=min+(max−min)/(1+(x/EC50)^−Hill slope) to calculate EC50. Where appropriate, samples were also measured in whole normal human serum following the addition of a known amount of human CRP. […]
# [6] = Circulating CRP concentrations after subcutaneous CRP in mice; format: in vivo; details: individual mice
# Method: as §1, §2
Compound,IC50 (CRP [1]) [µM],Stable to rechromatography (CRP [3]),IC50 (CRP [5]) [µM],further results
O=C(NC([C@H]1CN2CCC1CC2)P(=O)(O)OCc1ccccc1)c1ccc(C(=O)NC([C@H]2CN3CCC2CC3)P(=O)(O)OCc2ccccc2)cc1 (some centres unmarked) [Compound P3A-C],0.91,–,–,Time complexes stable in vivo (CRP [2]; complexes formed in vitro): at least 6 hours
"O=C(O)C(NC(=O)[C@H]1CC[C@H](C(=O)NC(C(=O)O)[C@H]2CN3CCC2CC3)CC1)[C@H]1CN2CCC1CC2 (stereo partly drawn) [Compound P2B-H, 2-[[4-[[-carboxy-[(3R)-quinuclidin-3-yl]methyl]carbamoyl]cyclohexanecarbonyl]amino]-2-[(3R)-quinuclidin-3-yl]acetic acid]",0.6,Yes,–,Time complex generated in vivo was partially stable (CRP [4]): at least 3 hours
"O=C(NC(C(=O)O)[C@H]1CN2CCC1CC2)c1cccc(C(=O)NC(C(=O)O)[C@H]2CN3CCC2CC3)c1 (stereo partly drawn) [Compound P2B-E, 2-[[3-[[carboxy-[(3R)-quinuclidin-3-yl]methyl]carbamoyl]benzoyl]amino]-2-[(3R)-quinuclidin-3-yl]acetic acid]",–,–,2.02,–
"CRP: Human C-reactive protein, isolated and purified, injected into mice",–,–,–,"t1/2 of clearance of CRP (CRP [2]; intravenous, 125I-CRP tracer): ~2.17 h; Circulating CRP concentration ([6]; 16 h after subcutaneous 1 mg CRP): 58.2 mg/L and 69.2 mg/L; Circulating CRP concentration ([6]; 18 h after subcutaneous 1 mg CRP): 44.0 mg/L and 57.2 mg/L; Circulating CRP concentration ([6]; 24 h after subcutaneous 1 mg CRP): 24.0 mg/L and 32.2 mg/L"
"O=C(NC(C(=O)O)[C@H]1CN2CCC1CC2)c1ccc(C(=O)NC(C(=O)O)[C@H]2CN3CCC2CC3)cc1 (stereo partly drawn) [Compound P2B-B, (R,2R,2′R)-2,2′-(terephthaloylbis(azanediyl))bis(2-((R)-quinuclidin-3-yl)acetic acid)]",0.64 ± 0.17,Yes,0.6,Time CRP:ligand complex generated in vivo was stable (CRP [4]): at least 1 hour

# From patent US20230118142A1, “AGENTS FOR USE IN THE TREATMENT OF TISSUE DAMAGE” (UCL BUSINESS LTD, priority 2020, published 2023)
